Earlier results on two compounds are cited in publication PMC6843445, “Pharmacokinetic Properties of Fluorescently Labelled Hydroxypropyl-Beta-Cyclodextrin” (Biomolecules, 2019).

Like-named read-outs stand apart in the source and are kept apart here.

One data set deals with Caco-2 cells. Also on record: method as in PMID 27317368, PMID 20434542. To be noted: HPBCD with different DS; ref [6],[7]; cited from earlier work.
On the set-up of data set [1]: method as in PMID 23611577. To be noted: pigs, 2 week 0.25–0.5 g/kg/infusion; ref [9]; cited from earlier work.
Details of data set [2]: method as in ref [4] = [4]; PMID 16018907; doi:10.1016/j.fct.2005.03.007; 4. Gould S. Scott R.C. 2-Hydroxypropyl-beta-cyclodextrin (HP-b-CD): A toxicology review Food Chem. Toxicol. 2005 43 1451 1459 10.1016/j.fct.2005.03.007 16018907. To be noted: dogs; ref [4]; cited from earlier work.
Details of data set [3]: method as in ref [4] = [4]; PMID 16018907; doi:10.1016/j.fct.2005.03.007; 4. Gould S. Scott R.C. 2-Hydroxypropyl-beta-cyclodextrin (HP-b-CD): A toxicology review Food Chem. Toxicol. 2005 43 1451 1459 10.1016/j.fct.2005.03.007 16018907. To be noted: rats; ref [4]; cited from earlier work.
On the set-up of data set [4]: method as in PMID 27317368, PMID 20434542. Particulars: HPBCD with different DS; ref [6],[7]; cited from earlier work.
On the set-up of data set [5]: method as in ref [4],[27] = [4]; PMID 16018907; doi:10.1016/j.fct.2005.03.007; 4. Gould S. Scott R.C. 2-Hydroxypropyl-beta-cyclodextrin (HP-b-CD): A toxicology review Food Chem. Toxicol. 2005 43 1451 1459 10.1016/j.fct.2005.03.007 16018907 || [27]; 27. Committee for Human Medicinal Products (CHMP), European Medicines Agency Cyclodextrins Used as Excipients. EMA/CHMP/333892/2013 9 10 2017 Available online: http://www.ema.europa.eu/docs/en_GB/docu. To be noted: rats; ref [4],[27]; cited from earlier work.

On the set-up of data set [6]: method as in PMID 22552390. To be noted: rats, subcutaneous long-term, daily dose of 200 mg/kg; ref [8]; cited from earlier work.
Details of data set [7]: method as in ref [4] = [4]; PMID 16018907; doi:10.1016/j.fct.2005.03.007; 4. Gould S. Scott R.C. 2-Hydroxypropyl-beta-cyclodextrin (HP-b-CD): A toxicology review Food Chem. Toxicol. 2005 43 1451 1459 10.1016/j.fct.2005.03.007 16018907. To be noted: rats, 4–7 days 225 mg/kg/day i.v.; ref [4]; cited from earlier work.
On the set-up of data set [8]: method as in PMID 28803710. Particulars: patients with NPC1, lumbar intrathecal; ref [2]; cited from earlier work.
On the set-up of data set [9]: method as in PMID 30521943. Particulars: after 30 min; ref [21]; cited from earlier work.

For the compound `CC(O)COC[C@H]1O[C@@H]2O[C@H]3[C@H](O)[C@@H](O)[C@@H](O[C@H]4[C@H](O)[C@@H](O)[C@@H](O[C@H]5[C@H](O)[C@@H](O)[C@@H](O[C@H]6[C@H](O)[C@@H](O)[C@@H](O[C@H]7[C@H](O)[C@@H](O)[C@@H](O[C@H]8[C@H](O)[C@@H](O)[C@@H](O[C@H]1[C@H](O)[C@H]2O)O[C@@H]8COCC(C)O)O[C@@H]7COCC(C)O)O[C@@H]6COCC(C)O)O[C@@H]5COCC(C)O)O[C@@H]4COCC(C)O)O[C@@H]3COCC(C)O` (stereo partly drawn) [HPBCD, 2-Hydroxypropyl-beta-cyclodextrin], in the data set on Caco-2 cells, the “cytotoxicity on Caco-2 cells” value is given as “no toxicity”. Also, the figures for the lung findings result in data set [1] and in data set [7] were “inflammatory changes in the lung” and “foamy macrophage infiltration of the lung”, respectively. Moreover, the “organs with the highest HPBCD concentrations” value was “kidneys and liver” in [2]; “kidneys and lung” in data set [3]. Moreover, the hemolytic activity result in data set [4] was “low hemolytic activity”. The “no observed adverse effect levels (NOAELs)” value in data set [5] was 50 mg/kg/day. Moreover, the bone effect result in data set [6] is recorded as “caused bone loss”. Moreover, the disease progression entry in data set [8] is reported as “slowed disease progression”.

For the compound “^68Ga-labeled NODAGA-hydroxypropyl-beta-cyclodextrin [^68Ga-NODAGA-HPBCD]”, the “activity in the lung compared to other organs” value in [9] is reported as “relatively higher”.
